Measured values taken from EP1698638A1, “Lipopeptides having pharmaceutical activity” (Technische Universität Berlin, priority 2005, dated 2006).

Columns and labels:
Assay in all cases: microdilution assay (NCCLS), inhibitory concentration (IC)
Format in all cases: cell-based
Details in all cases: RPMI-1640 medium
[1] = test system: Cryptococcus neoformas RKI 18/05
Method: (§1) More specifically, a determination of inhibitory concentration (IC) of hassallidin A and hassallidin B for various fungi, Candida species and Candida strains were performed with different media (RPMI-1640 or SAB or AM3) in a microdilution assay by following the guidelines in NCCLS documents M^38-P^25 and M27-A2^26 carried out as follows Each substance was dissolved with 100% dimethyl sulfoxide (Serva, Heidelberg, Germany) to give a stock solution of 3.2 mg/ml followed by nine log2 dilution steps with the solvent. This served as a 100-fold concentrated dilution series ranging from 1.6 mg/ml to 0.003 mg/ml of the test substance. The final concentration of the test substance was 16 µg/ml to 0.031 µg/ml.
(§2) Therefore the 100-fold concentrated dilution series (with 100% DMSO) was diluted to the final concentration by two dilution steps: • (1) Each concentration of the 100-fold concentrated substance was diluted with test medium for 1:50 (for ex.: adding of 13 µl of the test substance to 637 µl test medium). • (2) 100 µl of each 1:50 diluted concentration was filled in a row of wells of a microtitre plate. One well was without the substance but with the 1:50 diluted solvent serving as growth control.
A further 1:2 dilution of the antifungal was made by the inoculation of each well with 100 µl of the test organism, which was suspended in the test medium. The remaining well of the row was used for sterility control of the medium. The inoculum was strictly prepared according the NCCLS^25 guidelines, resulting in […] for Candida-species and Cryptococcus neoformans. For hyphomycetes CFU's were tenfold higher (see NCCLS). ^26 The growth of the hyphomycetes respectively the inhibition was measured by visual reading with the help of a reading mirror; scoring was done according to NCCLS :^26 score 0 corresponds to a optical clear well or an IC95 or higher, score 1 corresponds to an inhibition of 80 percent (IC80) and the score 2 of the NCCLS definition corresponds to the IC50 values in the tables. […] The percent inhibition IC50, IC80 or IC95 (corresponding the scores of 2, 1 and 0) was calculated by the following formula: (100−[(ODof the well−ODof the medium)] × 100)/((ODof the growth control−ODof the medium).) [formula] Table 3. Test series for determining IC values of hassallidin A and B in different media using Candida albicans and Candida krusei. The IC values were measured after 24 h and 48 h at 30 °C.

[2] = test system: Acremonium strictum RKI 226/03
Method: as §1, §2
(§3) A further 1:2 dilution of the antifungal was made by the inoculation of each well with 100 µl of the test organism, which was suspended in the test medium. The remaining well of the row was used for sterility control of the medium. The inoculum was strictly prepared according the NCCLS^25 guidelines, resulting in […] for Candida-species and Cryptococcus neoformans. For hyphomycetes CFU's were tenfold higher (see NCCLS). ^26 The growth of the hyphomycetes respectively the inhibition was measured by visual reading with the help of a reading mirror; scoring was done according to NCCLS :^26 score 0 corresponds to a optical clear well or an IC95 or higher, score 1 corresponds to an inhibition of 80 percent (IC80) and the score 2 of the NCCLS definition corresponds to the IC50 values in the tables. The growth of the yeasts was measured spectrophotometrically by a microplate reader (MR 5000, Dynatech laboratories) at 630 nm displaying the optical density (OD). The percent inhibition IC50, IC80 or IC95 (corresponding the scores of 2, 1 and 0) was calculated by the following formula: (100−[(ODof the well−ODof the medium)] × 100)/((ODof the growth control−ODof the medium).) [formula] Table 3. Test series for determining IC values of hassallidin A and B in different media using Candida albicans and Candida krusei. The IC values were measured after 24 h and 48 h at 30 °C.

Candida spp. I = test system: Candida spp. I
Method: as §1, §2, §3

[3] = test system: Aspergillus fumigatus RKI 914/02
Method: as §1, §2, §3

[4] = test system: Fusarium solani RKI 144/03
Method: as §1, §2, §3

[5] = test system: Fusarium solani RKI 233/04
Method: as §1, §2, §3

Substance: hassallidin A
- IC50 ([1]; 35°C/24h, visual): 4 (visual) µg/mL
- IC80 ([1]; 35°C/24h, visual): 4 (visual) µg/mL
- IC95 ([1]; 35°C/24h, visual): 4 (visual) µg/mL
- IC50 ([1]; 35°C/48h): 4 µg/mL
- IC80 ([1]; 35°C/48h): 4 µg/mL
- IC95 ([1]; 35°C/48h): 4 µg/mL
- IC50 ([2]; 30°C/24h): 4 to 8 µg/mL
- IC80 ([2]; 30°C/24h): 16 µg/mL
- IC95 ([2]; 30°C/24h): 16 µg/mL
- IC50 ([2]; 30°C/48h): >16 µg/mL
- IC80 ([2]; 30°C/48h): > 16 µg/mL
- IC95 ([2]; 30°C/48h): > 16 µg/mL
- IC50 (Candida spp. I; 35°C/24h): 8 µg/mL
- IC80 (Candida spp. I; 35°C/24h): 8 µg/mL
- IC95 (Candida spp. I; 35°C/24h): 8 µg/mL
- IC50 (Candida spp. I; 35°C/48h): 8 µg/mL
- IC80 (Candida spp. I; 35°C/48h): 8 µg/mL
- IC95 (Candida spp. I; 35°C/48h): 8 µg/mL
- IC50 ([3]; 35°C/24h): 2 µg/mL
- IC80 ([3]; 35°C/24h): 2 µg/mL
- IC95 ([3]; 35°C/24h): 2 µg/mL
- IC50 ([3]; 35°C/48h): 2 µg/mL
- IC80 ([3]; 35°C/48h): 2 µg/mL
- IC95 ([3]; 35°C/48h): 4 µg/mL
- IC50 ([4]; 30°C/24h): 16 µg/mL
- IC80 ([4]; 30°C/24h): 16 µg/mL
- IC95 ([4]; 30°C/24h): >16 µg/mL
- IC50 ([4]; 30°C/48h): >16 µg/mL
- IC80 ([4]; 30°C/48h): >16 µg/mL
- IC95 ([4]; 30°C/48h): >16 µg/mL
- IC50 ([5]; 30°C/24h): 16 µg/mL
- IC80 ([5]; 30°C/24h): 16 µg/mL
- IC95 ([5]; 30°C/24h): >16 µg/mL
- IC50 ([5]; 30°C/48h): >16 µg/mL
- IC80 ([5]; 30°C/48h): >16 µg/mL
- IC95 ([5]; 30°C/48h): >16 µg/mL
